Patent US20070154567A1, “Use of mercury to treat cancer” (priority 2006, published 2007)
Where “and” joins values, the source holds several entries; their conditions need not be identical. Equal entries are not always repeated.

Tested on: non-metastatic osteosarcoma on distal right radius
Assay: Oral inorganic mercury (II) treatment of a pet Rottweiler: blood data and clinical follow-up
Assay type: in vivo, dog
Set-up: MCV / MCH / Neutrophils, absolute / Bands / Lymphocytes, absolute / Monocytes, absolute / Eosinophils, absolute / Basophils, absolute: unit not given here
Source text: An 8 year old, 108 lbs female Rottweiler, was diagnosed with non-metastatic osteosarcoma on distal right radius.
Earlier cisplatin chemotherapy was attempted, but was stopped due to unacceptable side effects one month before the inorganic mercury treatment. Prior to treatment, the dog had high alkaline phosphatase (ALP) level that had been rising as disease progressed (compare Day (−57) and Day 1 in Table 2). ALP is a known progression marker for osteosarcoma (Kirpensteijn et al., 2002, Vet Pathol 39:240-246 and Gaetano Bacci et al., 2002, Oncology Reports 9: 171-175). The dog completed the first 30-day treatment course followed by a 30-day non-treatment period and started the second treatment course for at least up to day 65. The formulation contained 1 mM mercury acetate in 20 mM sodium acetate buffer, pH 4.5, with 100 mM sucrose and 150 mM sodium chloride additives. It was introduced orally to the dog three times a day at 0.5 micromole Hg^2+/kg/day. […] This drop in ALP level (˜250 Units/month) was significant considering that, prior to starting the mercury (II) treatment, it had been raising at ˜50 U/month rate. As observed by the attending veterinarian, the dog's appetite was increased and the dog gained 5 lbs during that period. […] During this period the condition of the dog worsened and was accompanied by an increase in ALP level (compare Day 32 and Day 65 in Table 3). The dog was euthanized on Day 91.

**Q.** Which results are given for CC(=O)[O-].CC(=O)[O-].[Hg+2] [inorganic mercury (II), mercury acetate]?
**A.** condition of the dog (2nd treatment course, formulation administered with food in violation of the protocol): worsened; ALT (SGPT) (Day 1): 61 U/L; AST (SGOT) (Day 1): 28 U/L; Albumin (Day 1): 3.7 g/dL; Albumin/Globulin Ratio (Day 1): 1.1; Alkaline Phosphatase (ALP) (Day 1): 794 U/L and 794 (H) U/L; Amylase (Day 1): 862 U/L; BUN/Creatinine Ratio (Day 1): 9; Bands (Day 1): 0; Basophils, absolute (Day 1): 0; CPK (Day 1): 175 U/L; Calcium (Day 1): 10.6 mg/dL; Chloride (Day 1): 116 mE/L; Cholesterol (Day 1): 240 mg/dL; Creatinine (Day 1): 1.2 mg/dL; Eosinophils, (%) (Day 1): 7%; Eosinophils, absolute (Day 1): 770; Globulin (Day 1): 3.4 g/dL; Glucose (Day 1): 77 mg/dL; Hematocrit (Day 1): 41.3%; Hemoglobin (Day 1): 13.7 g/dL; Lymphocytes, (%) (Day 1): 26%; Lymphocytes, absolute (Day 1): 2860; MCH (Day 1): 22.2; MCHC (Day 1): 33.2; MCV (Day 1): 67; Monocytes, (%) (Day 1): 6%; Monocytes, absolute (Day 1): 660; Neutrophils, (%) (Day 1): 61%; Neutrophils, absolute (Day 1): 6710; Phosphorus (Day 1): 5.4 mg/dL; Platelet count (Day 1): 475 (H) 10^3/microl; Potassium (Day 1): 5.2 mE/L; RBC (Day 1): 6.16 10^6/microl; Sodium (Day 1): 152 mE/L; Total Billirubin (Day 1): 0.1 mg/dL; Total Protein (Day 1): 7.1 g/dL; Urea Nitrogen (Day 1): 11 mg/dL; WBC (Day 1): 11.0 10^3/microl; drop in ALP level (Day 1 to Day 32, first treatment course): ~250 Units/month; ALT (SGPT) (Day 32): 61 U/L; AST (SGOT) (Day 32): 27 U/L; Albumin (Day 32): 3.5 g/dL; Albumin/Globulin Ratio (Day 32): 1.1; Alkaline Phosphatase (ALP) (Day 32): 539 U/L and 539 (H) U/L; Amylase (Day 32): 864 U/L; BUN/Creatinine Ratio (Day 32): 12; Bands (Day 32): 0; CPK (Day 32): 198 U/L; Calcium (Day 32): 10.5 mg/dL; Chloride (Day 32): 118 mE/L; Cholesterol (Day 32): 251 mg/dL; Creatinine (Day 32): 1.3 mg/dL; Eosinophils, (%) (Day 32): 5%; Eosinophils, absolute (Day 32): 495; Globulin (Day 32): 3.3 g/dL; Glucose (Day 32): 102 mg/dL; Hematocrit (Day 32): 39.1%; Hemoglobin (Day 32): 13.9 g/dL; Lymphocytes, (%) (Day 32): 35%; Lymphocytes, absolute (Day 32): 3465; MCH (Day 32): 24.6; MCHC (Day 32): 35.5; MCV (Day 32): 69; Monocytes, (%) (Day 32): 5%; Monocytes, absolute (Day 32): 495; Neutrophils, (%) (Day 32): 55%; Neutrophils, absolute (Day 32): 5445; Phosphorus (Day 32): 5.5 mg/dL; Platelet count (Day 32): 213 10^3/microl; Potassium (Day 32): 5.2 mE/L; RBC (Day 32): 5.64 10^6/microl; Sodium (Day 32): 146 mE/L; Total Billirubin (Day 32): 0.2 mg/dL; Total Protein (Day 32): 6.8 g/dL; Urea Nitrogen (Day 32): 16 mg/dL; WBC (Day 32): 9.9 10^3/microl; ALT (SGPT) (Day 65): 62 U/L; AST (SGOT) (Day 65): 30 U/L; Albumin (Day 65): 3.8 g/dL; Albumin/Globulin Ratio (Day 65): 1.0; Alkaline Phosphatase (ALP) (Day 65): 606 (H) U/L; Amylase (Day 65): 1003 U/L; BUN/Creatinine Ratio (Day 65): 13; Bands (Day 65): 0; Basophils, absolute (Day 65): 0; CPK (Day 65): 171 U/L; Calcium (Day 65): 10.9 mg/dL; Chloride (Day 65): 113 mE/L; Cholesterol (Day 65): 244 mg/dL; Creatinine (Day 65): 1.2 mg/dL; Eosinophils, (%) (Day 65): 8%; Eosinophils, absolute (Day 65): 808; Globulin (Day 65): 3.8 (H) g/dL; Glucose (Day 65): 87 mg/dL; Hematocrit (Day 65): 42.3%; Hemoglobin (Day 65): 16.1 g/dL; Lymphocytes, (%) (Day 65): 33%; Lymphocytes, absolute (Day 65): 3333; MCH (Day 65): 24.8; MCHC (Day 65): 38.1 (H); MCV (Day 65): 65; Monocytes, (%) (Day 65): 4%; Monocytes, absolute (Day 65): 404; Neutrophils, (%) (Day 65): 55%; Neutrophils, absolute (Day 65): 5555; Phosphorus (Day 65): 5.1 mg/dL; Platelet count (Day 65): 368 10^3/microl; Potassium (Day 65): 4.6 mE/L; RBC (Day 65): 6.49 10^6/microl; Sodium (Day 65): 150 mE/L; Total Billirubin (Day 65): 0.1 mg/dL; Total Protein (Day 65): 7.5 (H) g/dL; Urea Nitrogen (Day 65): 15 mg/dL; WBC (Day 65): 10.1 10^3/microl; weight gained (first 30 days of treatment): 5 lbs; appetite (first 30 days of treatment, observed by attending veterinarian): increased
